# Test system: C2C12 cells
# Assay: Alkaline Phosphatase (ALP) functional activity assay in C2C12 cells
# Assay type: cell-based, Mouse
# Conditions: normalized to DMSO treatment; for activation at 0.5 µM: Mus musculus, C2C12, 144 h
# Method: Alkaline Phosphatase (ALP) Functional Activity Assay: C2C12 cells were plated into 12-well plates with 7,000 cells/well in 1 mL growth media. […] 1, 2, 3, or 4 in 0.1% DMSO was added (500 nM). Half the media was exchanged with fresh media containing compound every 48 hrs. After 6 days, media was removed, ALP Lysis Buffer (10 mM Tris-HCl pH 8.0, 1 mM MgCl2, and 1% Triton X100) added, and cell lysate obtained (10 min incubation at RT) by centrifugation (5 min at 3500× g at 4° C.). Para-nitrophenol phosphate (pNPP) (2 mg/mL) was incubated with 50 μl cell lysate (10 mins, 37° C.). After addition of […] 0.02 N NaOH, absorbance OD405 was measured. Protein concentration was determined by Bradford protein assay. Results of ALP activity were plotted as nM pNP hydrolyzed/mg total protein. After normalizing control samples (i.e., DMSO-treated samples) to one-fold, the fold-changes were plotted to indicate the relative ALP activity. […] This protocol was applied to hMSC and E15 cells as well.
# [1] = compounds of Formula II or IV, absence of matrix
# [2] = compounds of Formula II or IV, presence of calcium phosphate matrix
# [3] = compounds of Formula VI, absence of matrix
# [4] = compounds of Formula VI, presence of calcium phosphate matrix
Compound,activation at 0.5 µM [1] [%],activation at 0.5 µM [2] [%],also measured
"Cc1ccc(N[C@@H]2C[C@H](C)Nc3ccc(C)cc32)cc1 (relative stereo) [Compound 5, cis-2,6-dimethyl-N-(p-methylphenyl)-1,2,3,4-tetrahydroquinolin-4-amine]",5 to 50,5 to 50,–
"Cc1ccc(N[C@H]2C[C@H](C)Nc3ccc(C)cc32)cc1 (relative stereo) [Compound 6, trans-2,6-dimethyl-N-(p-methylphenyl)-1,2,3,4-tetrahydroquinolin-4-amine]",50 to 100,< 5,–
"C[C@H]1C[C@@H](Nc2ccccc2)c2ccccc2N1 (relative stereo) [Compound 7, cis-2-methyl-N-phenyl-1,2,3,4-tetrahydroquinolin-4-amine]",5 to 50,5 to 50,–
"C[C@H]1C[C@H](Nc2ccccc2)c2ccccc2N1 (relative stereo) [Compound 8, trans-2-methyl-N-phenyl-1,2,3,4-tetrahydroquinolin-4-amine]",5 to 50,5 to 50,–
"COc1ccc(N[C@@H]2C[C@H](C)Nc3ccc(OC)cc32)cc1 (relative stereo) [Compound 11, cis-2-methyl-6-methoxy-N-(p-methoxyphenyl)-1,2,3,4-tetrahydroquinolin-4-amine]",< 5,50 to 100,–
"COc1ccc(N[C@H]2C[C@H](C)Nc3ccc(OC)cc32)cc1 (relative stereo) [Compound 12, trans-2-methyl-6-methoxy-N-(p-methoxyphenyl)-1,2,3,4-tetrahydroquinolin-4-amine]",> 100,5 to 50,–
"CC(=O)N1c2ccc(C)cc2[C@@H](Nc2ccc(C)cc2)C[C@@H]1C (relative stereo) [Compound 13, trans-1-acetyl-2,6-dimethyl-N-(p-methylphenyl)-1,2,3,4-tetrahydroquinolin-4-amine]",> 100,< 5,–
"Cc1ccc(N[C@H]2C[C@H](C)N(C(=O)C(C)C)c3ccc(C)cc32)cc1 (relative stereo) [Compound 15, trans-1-(2-propylcarbonyl)-2,6-dimethyl-4-(4-methylphenylamino)-1,2,3,4-tetrahydroquinoline]",< 5,50 to 100,–
"Cc1ccc(N[C@@H]2C[C@H](C)N(C(=O)c3ccccc3)c3ccc(C)cc32)cc1 (relative stereo) [Compound 18, cis-1-benzoyl-2,6-dimethyl-N-(p-methylphenyl)-1,2,3,4-tetrahydroquinolin-4-amine]",> 100,< 5,–
"Cc1ccc(N[C@H]2C[C@H](C)N(C(=O)c3ccccc3)c3ccc(C)cc32)cc1 (relative stereo) [Compound 19, trans-1-benzoyl-2,6-dimethyl-N-(p-methylphenyl)-1,2,3,4-tetrahydroquinolin-4-amine]",< 5,< 5,–
"CC(=O)N1c2ccc(F)cc2[C@H](Nc2ccc(F)cc2)C[C@@H]1C (relative stereo) [Compound 21, cis-1-acetyl-2-methyl-6-fluoro-N-(p-fluorophenyl)-1,2,3,4-tetrahydroquinolin-4-amine]",5 to 50,5 to 50,–
"CC(=O)N1c2ccc(F)cc2[C@@H](Nc2ccc(F)cc2)C[C@@H]1C (relative stereo) [Compound 22, trans-1-acetyl-2-methyl-6-fluoro-N-(p-fluorophenyl)-1,2,3,4-tetrahydroquinolin-4-amine]",5 to 50,< 5,–
"C[C@H]1C[C@@H](Nc2ccc(F)cc2)c2cc(F)ccc2N1C(=O)c1ccccc1 (relative stereo) [Compound 23, cis-1-benzoyl-2-methyl-6-fluoro-N-(p-fluorophenyl)-1,2,3,4-tetrahydroquinolin-4-amine]",50 to 100,5 to 50,–
"C[C@H]1C[C@H](Nc2ccc(F)cc2)c2cc(F)ccc2N1C(=O)c1ccccc1 (relative stereo) [Compound 24, trans-1-benzoyl-2-methyl-6-fluoro-N-(p-fluorophenyl)-1,2,3,4-tetrahydroquinolin-4-amine]",50 to 100,< 5,–
"COc1ccc(C(=O)N2c3ccc(F)cc3[C@H](Nc3ccc(F)cc3)C[C@@H]2C)cc1 (relative stereo) [Compound 25, cis-1-(p-methoxybenzoyl)-2-methyl-6-fluoro-N-(p-fluorophenyl)-1,2,3,4-tetrahydroquinolin-4-amine]",5 to 50,5 to 50,–
"COc1ccc(C(=O)N2c3ccc(F)cc3[C@@H](Nc3ccc(F)cc3)C[C@@H]2C)cc1 (relative stereo) [Compound 26, trans-1-(p-methoxybenzoyl)-2-methyl-6-fluoro-N-(p-fluorophenyl)-1,2,3,4-tetrahydroquinolin-4-amine]",< 5,50 to 100,–
"CC(=O)N1c2ccc(C)cc2[C@@H](N(C(C)=O)c2ccc(C)cc2)C[C@@H]1C (relative stereo) [Compound 27, trans-1-acetyl-2,6-dimethyl-N-(p-methylphenyl)-N-acetyl-1,2,3,4-tetrahydroquinolin-4-amine]",5 to 50,5 to 50,–
"Cc1ccc(N(C(=O)c2ccccc2)[C@H]2C[C@H](C)N(C(=O)c3ccccc3)c3ccc(C)cc32)cc1 (relative stereo) [Compound 28, trans-1-benzoyl-2,6-dimethyl-N-(p-methylphenyl)-N-benzoyl-1,2,3,4-tetrahydroquinolin-4-amine]",< 5,< 5,–
"C[C@H]1C[C@H](N(C(=O)c2ccccc2)c2ccc(F)cc2)c2cc(F)ccc2N1C(=O)c1ccccc1 (relative stereo) [Compound 29, trans-1-benzoyl-2-methyl-6-fluoro-N-(p-fluorophenyl)-N-benzoyl-1,2,3,4-tetrahydroquinolin-4-amine]",> 100,< 5,–
"COc1ccc(C(=O)N2c3ccc(F)cc3[C@@H](N(C(=O)c3ccc(OC)cc3)c3ccc(F)cc3)C[C@@H]2C)cc1 (relative stereo) [Compound 30, trans-1-(p-methoxybenzoyl)-2-methyl-6-fluoro-N-(p-fluorophenyl)-N-(p-methoxybenzoyl)-1,2,3,4-tetrahydroquinolin-4-amine]",< 5,5 to 50,–
"COc1cc(N(C)C)ccc1C=CC(=O)C=C(O)C=Cc1ccc(N(C)C)cc1OC [Compound 39, 1,7-Bis(4-dimethylamino-2-methoxyphenyl). 5-hydroxy-hepta-1,4,6-trien-3-one]",–,–,ALP activity −matrix [3]: +++ (>100%); ALP activity +matrix [4]: − (<5%)
"CN(C)c1ccc(C=CC(=O)C=C(O)C=Cc2ccc(N(C)C)cc2)cc1 [Compound 47, 1,7-Bis-(4-dimethylaminophenyl)-5-hydroxy-hepta-1,4,6-trien-3-one]",–,–,activation at 0.5 µM [3]: > 100%; activation at 0.5 µM [4]: < 5%
"COc1ccc(C=CC(=O)C=C(O)C=Cc2ccc(OC)c(O)c2)cc1O [Compound 48, 5-Hydroxy-1,7-bis-(3-hydroxy-4-methoxyphenyl)-hepta-1,4,6-trien-3-one]",–,–,activation at 0.5 µM [3]: > 100%; activation at 0.5 µM [4]: < 5%
"COc1cc(O)ccc1C=CC(=O)C=C(O)C=Cc1ccc(O)cc1OC [Compound 49, 5-Hydroxy-1,7-bis-(4-hydroxy-2-methoxyphenyl)-hepta-1,4,6-trien-3-one]",–,–,activation at 0.5 µM [3]: 50 to 100%; activation at 0.5 µM [4]: < 5%
"COc1ccc(F)cc1C=CC(=O)C=C(O)C=Cc1cc(F)ccc1OC [Compound 53, 1,7-Bis-(5-fluoro-2-methoxyphenyl)-5-Hydroxy-hepta-1,4,6-trien-3-one]",–,–,activation at 0.5 µM [3]: < 5%; activation at 0.5 µM [4]: < 5%
"O=C(C=Cc1ccc(O)cc1)C1CCCC(=Cc2ccc(O)cc2)C1=O (stereo not shown) [Compound 55, 2-(4-Hydroxybenzylidene)-6-(3-(4-hydroxyphenyl)acryloyl)-cyclohexanone]",–,–,activation at 0.5 µM [3]: 5 to 50%; activation at 0.5 µM [4]: 5 to 50%
"COc1ccc(F)cc1C=CC(O)=C1CCCC(=Cc2cc(F)ccc2OC)C1=O [Compound 56, 2-(5-Fluoro-2-methoxybenzylidene)-6-(3-(5-fluoro-2-methoxyphenyl)-1-hydroxyallylidene) cyclohexanone]",–,–,activation at 0.5 µM [3]: < 5%; activation at 0.5 µM [4]: > 100%
"CN(C)c1ccc(C=CC(=O)C2CCCC(=Cc3ccc(N(C)C)cc3)C2=O)cc1 (stereo not shown) [Compound 57, 2-(4-N,N-dimethylaminobenzylidene)-6-(3-(4-N,N-dimethylaminophenyl)acryloyl)cyclohexanone]",–,–,ALP activity −matrix [3]: − (<5%); ALP activity +matrix [4]: ++ (50-100%)
"COc1cc(C=CC(=O)C2CCCC(=Cc3ccc(O)c(OC)c3)C2=O)ccc1O (stereo not shown) [Compound 58, 2-(4-Hydroxy-3-methoxybenzylidene)-6-(3-(4-hydroxy-3-methoxyphenyl)acryloyl)cyclohexanone]",–,–,activation at 0.5 µM [3]: 5 to 50%; activation at 0.5 µM [4]: 5 to 50%
